One assay deals with HCT116 WT. The assay is described as follows: Proliferation of HCT116 colorectal cell line, Cell TiterGlo. Format: cell-based, human. The conditions noted are these: Homo sapiens, HCT-116, read-out: HCT116 IC50 (uM) HCT116 WT. The procedure, abridged:
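HCT116 colorectal cells, wild type, GCN2 CRISPR knockout, or wild type plus ISRIB; proliferation read by CellTiter-Glo luminescence. 10-point dose response in triplicate, IC50 reported; multiple values are independent experiments.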
A general note: ATP-based viability assays read luminescence as a measure of living cells.
Take `Cn1nc(-c2ccc(NC(=O)c3ccccc3COCCN=[N+]=[N-])cc2)cc1NC(=O)c1cccc(C2(C(F)(F)F)N=N2)c1` [SW394739, 2-((2-azidoethoxy)methyl)-N-(4-(1-methyl-5-(3-(3-(trifluoromethyl)-3H-diazirin-3-yl)benzamido)-1H-pyrazol-3-yl)phenyl)benzamide]: the IC50 stood at 0.4 µM.

The assay is the same for the next values; noted with them: Homo sapiens, HCT-116, wild type HCT116; 10-point dose response in triplicate; multiple values = separate independent experiments; read-out: HCT116 IC50 (uM) HCT116 WT.
Take `Cn1nc(-c2ccc(NC(=O)c3cccnc3C(F)(F)F)cc2)cc1NC(=O)c1ccccc1Cl` [SW394631, N-(4-(5-(2-Chlorobenzamido)-1-methyl-1H-pyrazol-3-yl)phenyl)-2-(trifluoromethyl)nicotinamide]: the half-inhibitory concentration (IC50) is 0.022 µM.

As for `Cn1nc(-c2ccc(NC(=O)c3ccccc3COCCNC(=O)CCCC[C@H]3SC[C@H]4NC(=O)N[C@H]43)cc2)cc1NC(=O)c1ccccc1` [SW394656, N-(4-(5-benzamido-1-methyl-1H-pyrazol-3-yl)phenyl)-2-((2-(5-((3aR,4R,6aS)-2-oxohexahydro-1H-thieno[3,4-d]imidazol-4-yl)pentanamido)ethoxy)methyl)benzamide], the IC50 was found to be 0.071 µM.

As for `Cn1nc(-c2ccc(CC(=O)c3ccccc3CCCNC(=O)CCCC[C@@H]3CC[C@]4(C)CCC[C@H]34)cc2)cc1CC(=O)c1ccccc1` [SW394657], the IC50 was determined as 0.044 µM.

Take `Cn1nc(-c2ccc(NC(=O)c3ccccc3Cl)cc2)cc1NC(=O)c1cccc(CCCNC(=O)CCCC[C@H]2SC[C@H]3NC(=O)N[C@H]32)c1` [SW394692, 2-chloro-N-(4-(1-methyl-5-(3-(3-(5-((3aR,4R,6aS)-2-oxohexahydro-1H-thieno[3,4-d]142 imidazole-4-yl)pentanamido)propyl)benzamido)-1H-pyrazol-3-yl)phenyl)benzamide]: the IC50 came to 0.5 µM.

`Cn1nc(-c2ccc(NC(=O)c3ccccc3Cl)cc2)cc1NC(=O)c1cccc(C#CCN)c1` [SW394693, N-(4-(5-(3-(3-aminoprop-1-yn-1-yl)benzamido)-1-methyl-1H-pyrazol-3-yl)phenyl)-2-chlorobenzamide]: the IC50 amounted to 0.17 µM.

As to `Cc1ncccc1C(=O)Nc1ccc(-c2cc(NC(=O)c3ccccc3)n(C)n2)c(F)c1` [SW394694, N-(4-(5-Benzamido-1-methyl-1H-pyrazol-3-yl)-3-fluorophenyl)-2-methylnicotinamide], the IC50 came out at 0.03 µM.

Consider `Cc1ncccc1C(=O)Nc1ccc(-c2cc(NC(=O)c3ccccc3F)n(C)n2)c(F)c1` [SW394695, N-(3-Fluoro-4-(5-(2-fluorobenzamido)-1-methyl-1H-pyrazol-3-yl)phenyl)-2-methylnicotinamide], for which the concentration for half-maximal inhibition (IC50) was determined as 0.03 µM.

For `Cc1ncccc1C(=O)Nc1ccc(-c2cc(NC(=O)C3CCC(F)(F)CC3)n(C)n2)c(F)c1` [SW394696, N-(4-(5-(4,4-Difluorocyclohexane-1-carboxamido)-1-methyl-1H-pyrazol-3-yl)-3-fluorophen-yl)-2-methylnicotinamide], the IC50 is 0.09 µM.

For `Cn1nc(-c2ccc(NC(=O)c3ccccc3N3CCOCC3)cc2)cc1NC(=O)c1ccccc1` [SW394697, N-(4-(5-Benzamido-1-methyl-1H-pyrazol-3-yl)phenyl)-2-morpholinobenzamide], the IC50 is 0.77 µM.

Consider `CN1CCN(c2ccccc2C(=O)Nc2ccc(-c3cc(NC(=O)c4ccccc4)n(C)n3)cc2)CC1` [SW394698, N-(4-(5-Benzamido-1-methyl-1H-pyrazol-3-yl)phenyl)-2-(4-methylpiperazin-1-yl)benzamide], for which the IC50 was 10 µM.

Regarding `Cc1ncccc1C(=O)Nc1ccc(-c2cc(NC(=O)c3ccccc3Cl)n(C)n2)c(F)c1` [SW394699, N-(4-(5-(2-chlorobenzamido)-1-methyl-1H-pyrazol-3-yl)-3-fluorophenyl)-2-methylnicotinamide], the IC50 came to 0.02 µM.

Consider `Cn1nc(-c2ccc(NC(=O)c3ccccc3COCCN=[N+]=[N-])cc2)cc1NC(=O)c1cccc(C(=O)c2ccccc2)c1` [SW394738, 2-((2-azidoethoxy)methyl)-N-(4-(5-(3-benzoylbenzamido)-1-methyl-1H-pyrazol-3-yl)phenyl)benzamide], for which the IC50 came out at 0.07 µM.

On to `C#Cc1cccc(C(=O)Nc2cc(-c3ccc(NC(=O)c4ccccc4COCCNC(=O)CCC4(C)N=N4)cc3)nn2C)c1` [SW394741, N-(4-(5-(3-ethynylbenzamido)-1-methyl-1H-pyrazol-3-yl)phenyl)-2-((2-(3-(3-methyl-3H-diazirin-3-yl)propanamido)ethoxy)methyl)benzamide], for which the IC50 turned out to be 0.17 µM.

Take `Cc1ncccc1C(=O)Nc1ccc(-c2cc(NC(=O)c3ccccc3)n(C)n2)cc1F` [SW394743, N-(4-(5-Benzamido-1-methyl-1H-pyrazol-3-yl)-2-fluorophenyl)-2-methylnicotinamide]: the half-maximal inhibitory concentration (IC50) came to 15 µM.

With `Cc1ncccc1C(=O)Nc1ccc(-c2cc(NC(=O)C3CCC(F)(F)CC3)n(C)n2)cc1F` [SW394744, N-(4-(5-(4,4-Difluorocyclohexane-1-carboxamido)-1-methyl-1H-pyrazol-3-yl)-2-fluorophen-yl)-2-methylnicotinamide], the half-inhibitory concentration (IC50) was above 50 µM.

Turning to `Cc1ncccc1C(=O)Nc1ccc(-c2cc(NC(=O)c3ccccc3F)n(C)n2)cc1F` [SW394745, N-(2-Fluoro-4-(5-(2-fluorobenzamido)-1-methyl-1H-pyrazol-3-yl)phenyl)-2-methylnicotinamide], the IC50 was determined as 21.7 µM.

`Cc1ncccc1C(=O)Nc1ccc(-c2cc(NC(=O)C3CCOCC3)n(C)n2)cc1` [SW394746, 2-Methyl-N-(4-(1-methyl-5-(tetrahydro-2H-pyran-4-carboxamido)-1H-pyrazol-3-yl)phenyl)nicotinamide]: the IC50 is 0.13 µM.

Turning to `Cn1nc(-c2ccc(NC(=O)c3cccc(CN=[N+]=[N-])c3Cl)cc2)cc1NC(=O)c1ccccc1Cl` [SW394763, 3-(azidomethyl)-2-chloro-N-(4-(5-(2-chlorobenzamido)-1-methyl-1H-pyrazol-3-yl)phenyl)benzamide], the IC50 stood at 0.02 µM.

For `Cn1nc(-c2ccc(NC(=O)c3ccccc3C3CCN(C(=O)OC(C)(C)C)CC3)cc2)cc1NC(=O)c1ccccc1` [SW394764, tert-butyl4-(2-((4-(5-benzamido-1-methyl-1H-pyrazol-3-yl)phenyl)carbamoyl)phenyl)piperidine-1-carboxylate], the IC50 turned out to be 0.3 µM.

As to `Cn1nc(-c2ccc(NC(=O)c3ccccc3C3CCNCC3)cc2)cc1NC(=O)c1ccccc1` [SW394767, N-(4-(5-benzamido-1-methyl-1H-pyrazol-3-yl)phenyl)-2-(piperidin-4-yl)benzamide], the IC50 amounted to 0.27 µM.

Turning to `Cn1nc(-c2ccc(NC(=O)c3cccc(CN)c3Cl)cc2)cc1NC(=O)c1ccccc1Cl` [SW394771, 3-(aminomethyl)-2-chloro-N-(4-(5-(2-chlorobenzamido)-1-methyl-1H-pyrazol-3-yl)phenyl)benzamide], the concentration for half-maximal inhibition (IC50) is 0.086 µM.

As to `CN(C)c1cccc(C(=O)Nc2cc(-c3ccc(NC(=O)c4ccccc4Cl)cc3)nn2C)c1` [SW394870, 2-Chloro-N-(4-(5-(3-(dimethylamino)benzamido)-1-methyl-1H-pyrazol-3-yl)phenyl)benzamide], the IC50 was determined as 0.02 µM.

For `Cc1ncccc1C(=O)Nc1ccc(-c2cc(NC(=O)c3cccc(N(C)C)c3)n(C)n2)cc1` [SW394871, N-(4-(5-(3-(Dimethylamino)benzamido)-1-methyl-1H-pyrazol-3-yl)phenyl)-2-methylnicotine-amide], the IC50 was 0.01 µM.

With `Cn1nc(-c2ccc(NC(=O)c3ccccc3Cl)cc2)cc1NC(=O)Nc1ccccc1` [SW394872, 2-Chloro-N-(4-(1-methyl-5-(3-phenylureido)-1H-pyrazol-3-yl)phenyl)benzamide], the half-maximal inhibitory concentration (IC50) stood at 0.11 µM.

With `Cn1nc(-c2ccc(NC(=O)c3ccccc3Cl)cc2)cc1NC(=O)N1CCOCC1` [SW394873, N-(3-(4-(2-Chlorobenzamido)phenyl)-1-methyl-1H-pyrazol-5-yl)morpholine-4-carboxamide], the IC50 was found to be 0.29 µM.

For `Cn1nc(-c2ccc(NC(=O)c3ccccc3Cl)cc2)cc1NC(=O)N1CCCCC1` [SW394874, N-(3-(4-(2-Chlorobenzamido)phenyl)-1-methyl-1H-pyrazol-5-yl)piperidine-1-carboxamide], the IC50 stood at 0.067 µM.

With `Cn1nc(-c2ccc(NC(=O)c3ccccc3Cl)cc2)cc1NC(=O)N1CCCC1` [SW394876, N-(3-(4-(2-Chlorobenzamido)phenyl)-1-methyl-1H-pyrazol-5-yl)pyrrolidine-1-carboxamide], the IC50 is 0.19 µM.

With `COC(=O)c1cccc(C(=O)Nc2cc(-c3ccc(NC(=O)c4ccccc4Cl)cc3)nn2C)c1` [SW394878, Methyl 3-((3-(4-(2-chlorobenzamido)phenyl)-1-methyl-1H-pyrazol-5-yl)carbamoyl)benzoate], the IC50 amounted to 0.01 µM.

Staying with this assay, now noted: wild type HCT116; 10-point dose response in triplicate; multiple values = separate independent experiments.
As to `Cn1nc(-c2ccc(NC(=O)c3ccccc3Cl)cc2)cc1NS(=O)(=O)c1ccccc1` [SW394768, 2-Chloro-N-(4-(1-methyl-5-(phenylsulfonamido)-1H-pyrazol-3-yl)phenyl)benzamide], the “HCT116 IC50 (uM) HCT116 WT” value is “inactive”.

As to `Cn1nc(-c2ccc(NC(=O)c3ccccc3Cl)cc2)cc1NC(=O)c1cccc(C(=O)O)c1` [SW394800, 3-((3-(4-(2-Chlorobenzamido)phenyl)-1-methyl-1H-pyrazol-5-yl)carbamoyl)benzoic acid], the “HCT116 IC50 (uM) HCT116 WT” value was “inactive”.

In the case of `CN1CCN(C(=O)Nc2cc(-c3ccc(NC(=O)c4ccccc4Cl)cc3)nn2C)CC1` [SW394875, N-(3-(4-(2-Chlorobenzamido)phenyl)-1-methyl-1H-pyrazol-5-yl)-4-methylpiperazine-1-carb-oxamide], the “HCT116 IC50 (uM) HCT116 WT” value was “inactive”.

On to `CC(=O)N1CCN(C(=O)Nc2cc(-c3ccc(NC(=O)c4ccccc4Cl)cc3)nn2C)CC1` [SW394877, 4-Acetyl-N-(3-(4-(2-chlorobenzamido)phenyl)-1-methyl-1H-pyrazol-5-yl)piperazine-1-carb-oxamide], for which the “HCT116 IC50 (uM) HCT116 WT” value is “inactive”.

For orientation: IC50 means the concentration that gives 50% inhibition.

The values are drawn from US20250257041A1, “INDUCERS OF INTEGRATED STRESS RESPONSE TO TREAT CANCER” (The Board of Regents of The University of Texas System, priority 2022, published 2025).
